Measured values reported in US10233188B2, “CDK2/4/6 inhibitors” (priority 2016, dated 2019).

Tests used:
CDK2/Cyclin E1 = CDK2/Cyclin E1 (Homo sapiens (Human), UniProt P24941); experiment: biochemical; conditions: CDK2_Ki (nM), phosphorylated CDK2/Cyclin E1, 150 μM ATP, Morrison tight-binding fit
Method: The assay was initiated with the addition of ATP, following a fifteen minutes pre-incubation of enzyme and inhibitor at room temperature in the reaction mixture. The reaction was stopped after 45 minutes at room temperature by the addition of 50 μL of 80 mM EDTA, pH 7.5.

CDK6/Cyclin D1 = CDK6/Cyclin D1 (Homo sapiens (Human), UniProt Q00534); experiment: biochemical; conditions: CDK6_Ki (nM), non-phosphorylated CDK6/Cyclin D1, 2 mM ATP, Morrison fit
CDK6/Cyclin D1, sequence (Q00534 whole entry): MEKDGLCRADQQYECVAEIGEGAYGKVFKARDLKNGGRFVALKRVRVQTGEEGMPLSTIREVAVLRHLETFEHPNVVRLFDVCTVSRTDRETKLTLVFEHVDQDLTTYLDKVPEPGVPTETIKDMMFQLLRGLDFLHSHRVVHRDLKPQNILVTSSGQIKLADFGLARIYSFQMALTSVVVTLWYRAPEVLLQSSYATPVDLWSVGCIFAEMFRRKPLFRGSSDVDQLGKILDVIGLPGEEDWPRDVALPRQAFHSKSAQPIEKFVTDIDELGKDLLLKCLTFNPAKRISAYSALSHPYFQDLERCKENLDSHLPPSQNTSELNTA
CDK6/Cyclin D1, sequence (P24385 whole entry partner): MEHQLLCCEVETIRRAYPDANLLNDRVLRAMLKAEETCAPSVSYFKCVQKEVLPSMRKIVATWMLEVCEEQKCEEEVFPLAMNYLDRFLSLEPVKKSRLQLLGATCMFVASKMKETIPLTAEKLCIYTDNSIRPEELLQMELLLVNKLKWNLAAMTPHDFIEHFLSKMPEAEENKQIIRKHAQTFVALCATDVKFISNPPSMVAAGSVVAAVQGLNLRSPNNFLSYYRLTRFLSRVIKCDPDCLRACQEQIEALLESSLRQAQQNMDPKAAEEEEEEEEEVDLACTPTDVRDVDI

Ki (CDK2/Cyclin E1) [nM] | Ki (CDK6/Cyclin D1) [nM] | Compound
5.03 | 8.95 | COCCS(=O)(=O)N1CCC(Nc2ncc3ccc(=O)n([C@H]4CCC[C@]4(C)O)c3n2)CC1 (single isomer, unassigned) [Example 73, (+)-8-[(1R*,2R*)-2-hydroxy-2-methylcyclopentyl]-2-({1-[(2-methoxyethyl)sulfonyl]piperidin-4-yl}amino)pyrido[2,3-d]pyrimidin-7(8H)-one]
0.29 | 7 | NS(=O)(=O)N1CCC(Nc2ncc3ccc(=O)n(C4CCCCCC4)c3n2)CC1 [Example 21, 4-[(8-cycloheptyl-7-oxo-7,8-dihydropyrido[2,3-d]pyrimidin-2-yl)amino]piperidine-1-sulfonamide]
1.2 | 1.98 | CC(C)(O)CS(=O)(=O)N1CCC(Nc2ncc3ccc(=O)n([C@@H]4CCC[C@@]4(C)O)c3n2)CC1 [Example 189, 8-[(1R,2R)-2-hydroxy-2-methylcyclopentyl]-2-({1-[(2-hydroxy-2-methylpropyl)sulfonyl]piperidin-4-yl}amino)pyrido[2,3-d]pyrimidin-7(8H)-one]
0.34 | 4.36 | Cc1cc2cnc(NC3CCN(S(=O)(=O)CC(F)(F)F)CC3)nc2n([C@@H]2CCC[C@@]2(C)O)c1=O (single isomer, unassigned) [Example 118, (−)-8-[(1R*,2R*)-2-hydroxy-2-methylcyclopentyl]-6-methyl-2-({1-[(2,2,2-trifluoroethyl)sulfonyl]piperidin-4-yl}amino)pyrido[2,3-d]pyrimidin-7(8H)-one]
1.22 | 0.14 | CC(=O)c1c(C)c2cnc(NC3CCN(S(C)(=O)=O)CC3)nc2n([C@@H]2CCC[C@@]2(C)O)c1=O (single isomer, unassigned) [Example 177, (−)-6-acetyl-8-[(1R*,2R*)-2-hydroxy-2-methylcyclopentyl]-5-methyl-2-{[1-(methylsulfonyl)piperidin-4-yl]amino}pyrido[2,3-d]pyrimidin-7(8H)-one]
2.43 | 0.87 | CS(=O)(=O)N1CCC(Nc2ncc3cc(C(F)(F)C(=O)O)c(=O)n(C4CCCC4)c3n2)CC1 [Example 31, (8-cyclopentyl-2-{[1-(methylsulfonyl)piperidin-4-yl]amino}-7-oxo-7,8-dihydropyrido[2,3-d]pyrimidin-6-yl)(difluoro)acetic acid]
24.9 | 12 | Cc1cc2cnc(NC3CCN(S(C)(=O)=O)CC3)nc2n(C2CCCCC(O)C2)c1=O (single isomer, unassigned; isomer b) [Example 224, 8-(3-hydroxycycloheptyl)-6-methyl-2-{[1-(methylsulfonyl)piperidin-4-yl]amino}pyrido[2,3-d]pyrimidin-7(8H)-one-Isomer B]
0.38 | 2.18 | C[C@@]1(O)CCC[C@H]1n1c(=O)c(CC(N)=O)cc2cnc(NC3CCN(S(C)(=O)=O)CC3)nc21 (single isomer, unassigned) [Example 179, (−)-2-(8-[(1R*,2R*)-2-hydroxy-2-methylcyclopentyl]-2-{[1-(methylsulfonyl)piperidin-4-yl]amino}-7-oxo-7,8-dihydropyrido[2,3-d]pyrimidin-6-yl)acetamide]
4.75 | 13.1 | C[C@@]1(O)CCC[C@H]1n1c(=O)c(F)cc2cnc(NC3CCN(S(C)(=O)=O)CC3)nc21 (single isomer, unassigned) [Example 5, (+)-6-fluoro-8-[(1R*,2R*)-2-hydroxy-2-methylcyclopentyl]-2-{[1-(methylsulfonyl)piperidin-4-yl]amino}pyrido[2,3-d]pyrimidin-7(8H)-one]
0.57 | 0.37 | C[C@@]1(O)CCC[C@H]1n1c(=O)c(C(F)(F)F)cc2cnc(NC3CCN(S(C)(=O)=O)CC3)nc21 [Example 132, 8-[(1R,2R)-2-hydroxy-2-methylcyclopentyl]-2-{[1-(methylsulfonyl)piperidin-4-yl]amino}-6-(trifluoromethyl)pyrido[2,3-d]pyrimidin-7(8H)-one]
0.27 | 0.08 | C[C@H]1CCC[C@H]1n1c(=O)c(CO)cc2cnc(NC3CCN(S(C)(=O)=O)CC3)nc21 [Example 50, 6-(hydroxymethyl)-8-[(1R,2S)-2-methylcyclopentyl]-2-{[1-(methylsulfonyl)piperidin-4-yl]amino}pyrido[2,3-d]pyrimidin-7(8H)-one]
3.24 | 23.1 | CNS(=O)(=O)N1CCC(Nc2ncc3cc(C(F)F)c(=O)n([C@H]4CCC[C@]4(C)O)c3n2)CC1 (single isomer, unassigned) [Example 131, (+)-4-({6-(difluoromethyl)-8-[(1R*,2R*)-2-hydroxy-2-methylcyclopentyl]-7-oxo-7,8-dihydropyrido[2,3-d]pyrimidin-2-yl}amino)-N-methylpiperidine-1-sulfonamide]
0.15 | 0.21 | Cc1cc2cnc(NC3CCN(S(=O)(=O)CC4CC4)CC3)nc2n([C@@H]2CCC[C@@]2(C)O)c1=O (single isomer, unassigned) [Example 116, (−)-2-({1-[(cyclopropylmethyl)sulfonyl]piperidin-4-yl}amino)-8-[(1R*,2R*)-2-hydroxy-2-methylcyclopentyl]-6-methylpyrido[2,3-d]pyrimidin-7(8H)-one]
 | 7.29 | CS(=O)(=O)N1CC[C@@H](Nc2ncc3cc(N)c(=O)n(C4CCCC4)c3n2)[C@@H](F)C1 (single isomer, unassigned; isomer a) [Example 151, 6-amino-8-cyclopentyl-2-{[(3R*,4S*)-3-fluoro-1-(methylsulfonyl)piperidin-4-yl]amino}pyrido[2,3-d]pyrimidin-7(8H)-one-Isomer A]
 | 0.43 | CS(=O)(=O)N1CC[C@H](Nc2ncc3cc(Cl)c(=O)n(C4CCCC4)c3n2)[C@H](F)C1 (single isomer, unassigned) [Example 152, (−)-6-chloro-8-cyclopentyl-2-{[(3R*,4S*)-3-fluoro-1-(methylsulfonyl)piperidin-4-yl]amino}pyrido[2,3-d]pyrimidin-7(8H)-one]
 | 2.23 | CS(=O)(=O)N1CC[C@@H](Nc2ncc3cc(Cl)c(=O)n(C4CCCC4)c3n2)[C@@H](F)C1 (single isomer, unassigned) [Example 153, (+)-6-chloro-8-cyclopentyl-2-{[(3R*,4S*)-3-fluoro-1-(methylsulfonyl)piperidin-4-yl]amino}pyrido[2,3-d]pyrimidin-7(8H)-one]
 | 2.26 | CS(=O)(=O)N1CC[C@@H](Nc2ncc3cc(Cl)c(=O)n(C4CCCC4)c3n2)[C@H](F)C1 (single isomer, unassigned) [Example 155, (+)-6-chloro-8-cyclopentyl-2-{[(3S*,4S*)-3-fluoro-1-(methylsulfonyl)piperidin-4-yl]amino}pyrido[2,3-d]pyrimidin-7(8H)-one]
1.12 |  | CN(C)S(=O)(=O)N1CCC(Nc2ncc3ccc(=O)n(C4CCCC4)c3n2)CC1 [Example 12, 4-[(8-cyclopentyl-7-oxo-7,8-dihydropyrido[2,3-d]pyrimidin-2-yl)amino]-N,N-dimethylpiperidine-1-sulfonamide]
17.6 |  | C[C@]1(O)CCC[C@@H]1n1c(=O)ccc2cnc(NC3CCN(S(=O)(=O)C(F)(F)F)CC3)nc21 (single isomer, unassigned) [Example 89, (+)-8-[(1R*,2R*)-2-hydroxy-2-methylcyclopentyl]-2-({1-[(trifluoromethyl)sulfonyl]piperidin-4-yl}amino)pyrido[2,3-d]pyrimidin-7(8H)-one]
0.35 |  | C[C@@]1(O)CCC[C@H]1n1c(=O)ccc2cnc(NC3CCN(S(=O)(=O)NC[C@@H]4CCCO4)CC3)nc21 (single isomer, unassigned) [Example 62, (−)-4-({8-[(1R*,2R*)-2-hydroxy-2-methylcyclopentyl]-7-oxo-7,8-dihydropyrido[2,3-d]pyrimidin-2-yl}amino)-N-[(2S)-tetrahydrofuran-2-ylmethyl]piperidine-1-sulfonamide]
0.57 |  | C[C@@H]1[C@H](O)CC[C@H]1n1c(=O)c(CC(F)F)cc2cnc(NC3CCN(S(C)(=O)=O)CC3)nc21 (single isomer, unassigned) [Example 206, (−)-6-(2,2-difluoroethyl)-8-[(1R*,2S*,3R*)-3-hydroxy-2-methylcyclopentyl]-2-{[1-(methylsulfonyl)piperidin-4-yl]amino}pyrido[2,3-d]pyrimidin-7(8H)-one]
2.06 |  | C[C@H]1[C@@H](O)CCC[C@@H]1n1c(=O)ccc2cnc(NC3CCN(S(C)(=O)=O)CC3)nc21 (single isomer, unassigned) [Example 222, (+)-8-[(1S*,2R*,3S*)-3-hydroxy-2-methylcyclohexyl]-2-{[1-(methylsulfonyl)piperidin-4-yl]amino}pyrido[2,3-d]pyrimidin-7(8H)-one]
0.93 |  | CNS(=O)(=O)N1CCC(Nc2ncc3ccc(=O)n([C@H]4CCC[C@H]4C)c3n2)CC1 [Example 45, N-methyl-4-({8-[(1S,2R)-2-methylcyclopentyl]-7-oxo-7,8-dihydropyrido[2,3-d]pyrimidin-2-yl}amino)piperidine-1-sulfonamide]
9.04 |  | CC(=O)c1c(C)c2cnc(NC3CCN(S(C)(=O)=O)CC3)nc2n([C@H]2CCC[C@]2(C)O)c1=O (single isomer, unassigned) [Example 178, (+)-6-acetyl-8-[(1R*,2R*)-2-hydroxy-2-methylcyclopentyl]-5-methyl-2-{[1-(methylsulfonyl)piperidin-4-yl]amino}pyrido[2,3-d]pyrimidin-7(8H)-one]
 | 0.27 | CS(=O)(=O)N1CC[C@H](Nc2ncc3cc(Cl)c(=O)n(C4CCCC4)c3n2)[C@@H](F)C1 (single isomer, unassigned) [Example 154, (−)-6-chloro-8-cyclopentyl-2-{[(3S*,4S*)-3-fluoro-1-(methylsulfonyl)piperidin-4-yl]amino}pyrido[2,3-d]pyrimidin-7(8H)-one]
63.2 |  | CC1(C)CC(Nc2ncc3cc(CCO)c(=O)n(C4CCCC4)c3n2)CCN1S(C)(=O)=O (single isomer, unassigned; (-)) [Example 163, (−)-8-cyclopentyl-2-{[2,2-dimethyl-1-(methylsulfonyl)piperidin-4-yl]amino}-6-(2-hydroxyethyl)pyrido[2,3-d]pyrimidin-7(8H)-one]
